How the values were obtained:
[1] = Antioxidant capacity by 2,2-diphenyl-1-picrylhydrazyl (DPPH) assay; type: biochemical; settings: molar ratio DPPH:TCP 1:0.3, 30 minutes in the dark, 517 nm; mean ± s.d. of two independent experiments
Protocol: DPPH assay is a well-known and established method to measure antioxidant capacity of a molecule. […] When DPPH is in its oxidated form presents a violet color that changes to yellow/white when is reduced. This color change can be followed using UV-Vis spectroscopy. The assay was carried out in ethanol always maintaining a molar ratio DPPH: TCP of 1:0.3. In order to have 3 mL of final volume, DPPH was diluted in ethanol to have a final concentration of 63.4 μM. Free TCP and TCP DELOS-NVs were diluted to have a final concentration of 19 µM of TCP. Each solution was then mixed and kept at room temperature for 30 minutes in the dark. The absorbance of the solution was measured at 517 nm using a Thermo Scientific™ Evolution™ 201/220 UV-Visible spectrophotometer (Thermo Scientific). The percentage of TCP antioxidant capacity was calculated using the Equation 3, where Abscontrol is the absorbance at 517 nm of DPPH in ethanol and Abssample is the absorbance at 517 nm of the sample prepared as described (free TCP or TCP DELOS-NVs with DPPH).
The antioxidant capacity of TCP was evaluated once it was integrated in the NVs to verify that the molecule was still active after the encapsulation. The antioxidant capacity was measured by the 2,2-diphenyl-1-picrylhydrazyl (DPPH) assay. DPPH is a stable free radical that can be reduced in the presence of hydrogen-donating antioxidants such as TCP. […]

[2] = Entrapment efficiency (EE) by UV-Vis spectroscopy; type: physicochemical
Protocol: Entrapment efficiency (EE) of each active was determined by UV-Vis absorbance using an UV-Vis spectrophotometer (Thermo Scientific™ Evolution™ 201 UV-Visible Spectrophotometers, Thermo Scientific). For lipophilic actives (7-DHC, CBD, TCP, DiD and Dil) Vs membrane was dissociated to release the active by diluting the sample in ethanol at 80% (v/v) until a value of absorption below 1 and inside the calibration curve obtained. The concentration of each active was determined using a calibration curve, using the same media than the corresponding Vs system. The active was quantified before and after filtering process and both values were used to calculate the EE using Equation 1 (as described herein). As the lipophilic molecules are not soluble in aqueous media, it was considered that the filtered sample contained only the integrated active, since all the precipitated and non-integrated active should remain in the filter.
A different protocol was followed for hydrophilic actives (NCA, AG and MTX), in which, after the Vs filtration process, another step was applied to separate the non-integrated active. For NCA and AG, an ultracentrifugation step of the filtered sample was performed (6h, 4° C., 600000g) (Sorvall Discovery M150 Micro-Ultracentrifuge, Thermo Scientific). […]

[3] = Entrapment efficiency (EE) by fluorescence spectroscopy (proteins); type: physicochemical
Protocol: iii) Entrapment efficiency (EE) by fluorescence spectroscopy: Entrapment efficiency (EE) of both proteins was determined by fluorescence spectroscopy using a Varian Cary Eclipse (Agilent Technolo-gies, Santa Clara, USA). In both cases, the separation of the non-integrated protein from that integrated in Vs was done by TFF (KrosFlo® Research 11i TFF diafiltration system (KR2i), with a mPES filter hollow column cut-off 300 KDa (C04-E100-05-N, Spectrum Labs, SL). Then, the permeate fraction was recovered and analyzed by fluorescence, exciting the proteins at 278 nm. The concentration was calculated using a calibration curve using the same media of the corresponding Vs system. The entrapment efficiency was then calculated using Equation 2, as described herein.

Compound: Cc1c(C)c2c(c(C)c1O)CCC(C)(CCCC(C)CCCC(C)CCCC(C)C)O2 (racemic) [Free TCP, DL-alpha-Tocopherol]
- Antioxidant capacity (%) [1]: 60 ± 9%

Compound: C=C(C)[C@@H]1CCC(C)=C[C@H]1c1c(O)cc(CCCCC)cc1O [CBD, cannabidiol]
- EE [%] ([2]; active-loaded Sit:LGC (1:1) and Sit:LGL:LGC (1:0.8:0.2) Vs): 22-33%

Compound: CN(Cc1cnc2nc(N)nc(N)c2n1)c1ccc(C(=O)N[C@@H](CCC(=O)O)C(=O)O)cc1 [MTX, Methotrexate]
- EE [%] ([2]; active-loaded Sit:LGL-p:DC-Chol (0.8:1:0.2) Vs): 88%

Compound: HGH: Human growth hormone, small protein, encapsulated active
- EE [%] ([3]; protein (HGH) in Sit:LGL-p:DC-Chol (0.8:1:0.2) Vs): over 99%

Compound: b-FGF: basic fibroblast growth factor, small protein, encapsulated active
- EE [%] ([3]; protein (b-FGF) in negatively charged Sit:LGC (1:1) Vs): > 99%

— patent US20260041637A1, “VESICLES BASED ON GLUCOSE-DERIVED SURFACTANTS AND PHYTOSTEROLS” (NANOMOL TECHNOLOGIES, S.L., priority 2022, published 2026)
